Common to all, as to format: in vivo
Assay [1] deals with p-PKC. Kind of assay: Western blot of p-PKC in proximal descending thoracic aorta of treated Col3a1^G938D mice. Particulars: normalized to β-actin, vs untreated. As for the experimental part: (§1) Protein was extracted using an automatic bead homogenizer in conjunction with a Protein Extraction Kit (Full Moon Biosystems). All protein lysis buffers contained both PhosSTOP and cOmplete™, Mini, EDTA-free Protease Inhibitor Cocktail (Roche). Western blotting was performed using LI-COR buffer and species appropriate secondary antibodies conjugated to IR-dye700 or IRdye-800 (LI-COR Biosciences), according to the manufacturer's guidelines and analyzed using LI-COR Odyssey. The following primary antibodies were used: anti-β-Actin (8H10D10) (Cell Signaling Technology, 3700), anti-phospho ERK1/2 (Cell Signaling Technology, 4370), anti-PKCβ (phospho S660) (Abcam, 75837), anti-Endothelin-1 (TR.ET.48.5) (Thermo Fisher Scientific, MA3005), anti-Endothelin-1 (TR.ET.48.5) (Abcam, 2786).
(§2) pERK and pPKC amounts were normalized to j-actin as opposed to total ERK or total PKC for a variety of practical reasons. First, it is the amount of phosphorylated protein, and not the ratio of phosphorylated to unphosphorylated protein, that drives cellular responses. Second, we are unaware of any pathophysiologic context where the amount of unphosphorylated protein is limiting (i.e. always in excess). […]
Background: A western blot detects proteins with antibodies after separation by electrophoresis.

The test system of assay [2] is p-ERK1/2. Description: Western blot of p-ERK1/2 in proximal descending thoracic aorta of treated Col3a1^G938D mice. Particulars: normalized to β-actin, vs untreated. As for the experimental part: as §1, §2
In assay [3] the test system is Col3a1^G938D mice. Description: Survival drug trial in Col3a1^G938D/+ (vEDS) mice, Kaplan-Meier. The source says: All mice were maintained on a C57BL/6J background (#000664, The Jackson Laboratory). ET1^fl/fl f mice were obtained from RIKEN (RBRC06322). Tie2-Cre mice and Sm22-Cre mice were obtained from the Jackson Laboratory (#004128. #017491). All mice were genotyped according to published protocols.
Restriction enzymes were used to detect the presence or absence of the Col3a1 mutation as previously described. The G938D mutation leads to the gain of a BamHI cut site (R3136S, New England Biolabs). All mice found dead were assessed for cause of death by necropsy, noting in particular hemothorax and hemoperitoneum.
For drug trials in the Col3a1^G938D/+ mice, mice were initiated on medication at weaning and continued until 2 months of age. Cobimetinib (GDC-0973/RO551404, Active Biochem) was dissolved in drinking water and filtered to reach a final concentration of 0.02 g/L giving an estimated dose of 2 mg/kg/day. Ruboxistaurin (LY333531 HCl, Selleck Chemicals) was mixed with powdered food (LabDiet) to give a concentration of 0.1 mg/g giving an estimated dose of 8 mg/kg/day. […]
By design, each treatment trial included contemporaneous control (untreated) mice. […] All p-values calculated by log-rank comparisons (using Prism) are reported as unadjusted p-values, given the interdependence of many of the drug mechanisms. […]

For assay [4], the system named is Endothelin-1. Description: Immunofluorescence of Endothelin-1 in descending thoracic aorta of treated Col3a1^G938D/+ mice. The settings on record: descending thoracic aorta of 8-week-old Col3a1^G938D/+ mice, treated from weaning; cobimetinib est. 2 mg/kg/day, ruboxistaurin est. 8 mg/kg/day. As for the experimental part:
Mice were euthanized by isoflurane inhalation and the left common iliac artery was transected to allow for drainage. PBS (pH 7.4) and PBS containing 4% paraformaldehyde (PFA) was flushed through the left ventricle. The heart and thoracic aorta were removed en bloc and fixed in 4% PFA overnight at 4° C. Aortas were submitted for paraffin fixation and longitudinal sections 5 micrometers thick were mounted on glass slides and stained with hematoxylin & eosin (HE), Verhoeff-van Giesen (VVG), Masson's Trichrome, or Picrosirius red (PSR). Slides were imaged at 20× and 40× magnification using a Nikon Eclipse E400 microscope. Collagen content was determined by polarized PSR intensity (31) and elastin breaks were counted by a researcher blinded to genotype and treatment arm using only VVG stained sections where elastin breaks were clearly visualized.
For immunofluorescence, slides were incubated in antigen retrieval solution for 1 minute in a pressure cooker. Sections were incubated with 1% BSA for one hour at room temperature. Primary antibodies were diluted at 1:200 in 1% BSA and incubated overnight at 4° C. Three consecutive washes were performed prior to incubation with anti-rabbit secondary antibodies conjugated to Alexa Fluor 488 (Invitrogen A-11039) or anti-mouse secondary antibodies conjugated to Alexa Fluor 594 (Invitrogen R37119) at 1:200 for 1 hour at room temperature. […]

Regarding `COc1ccccc1Oc1c(NS(=O)(=O)c2ccc(C(C)(C)C)cc2)nc(-c2ncccn2)nc1OCCO` [bosentan, Bosentan], in assay [1], the “p-PKC level in aorta (in words)” value is “marked downregulation”. The “p-ERK1/2 level in aorta (in words)” value in assay [2] is “not p-ERK1/2”. For the same molecule, the “effect on survival (in words)” value in assay [3] (Col3a1^G938D/+ mice vs untreated, Log-Rank (Mantel-Cox)) is listed as “moderately but significantly improved survival”. Moreover, the “mice surviving to the end of the trial” value in assay [3] (vEDS (Col3a1^G938D) mice, drug from weaning (P21), followed 45 days, in food, estimated 100 mg/kg/day, untreated 46%) is given as 70%.
In the case of `O=C(c1ccc(F)c(F)c1Nc1ccc(I)cc1F)N1CC(O)([C@@H]2CCCCN2)C1` [cobimetinib, Cobimetinib], in assay [4], the “ET1 protein levels in aorta (in words)” value is “attenuated”.
Regarding `CN(C)C[C@@H]1CCn2cc(c3ccccc32)C2=C(C(=O)NC2=O)c2cn(c3ccccc23)CCO1` [ruboxistaurin, Ruboxistaurin], the “ET1 protein levels in aorta (in words)” value in assay [4] was “attenuated”.

(Values after patent publication US20250144095A1, “COMPOSITIONS AND METHODS FOR TREATMENT OF CONNECTIVE TISSUE DISORDERS” (The Johns Hopkins University, priority 2022, published 2025).)
